As usually defined, the pIC50 is −log10 of the IC50, conventionally taken in molar units. Read a low pIC50 as a high IC50. Broadly, the inhibition is the drop in the measured response relative to a control, in per cent. Higher therefore signals a strong effect.

pIC50: −log10 of the molar value. Counter-ions that a name gives are not always drawn.

For one test, the system named is MAP kinase. As to the kind of experiment: Whole cell MAP kinase assay (In Vivo, Cell Culture). Type of test: cell-based. As to the method: Cells were then serum-deprived overnight. Cells were exposed to the desired concentrations of compound or vehicle (DMSO) for 30 minutes, followed by addition of a growth factor, for example, PDGF (100 ng/mL). After a 5-minute treatment with the growth factor, cells were washed with PBS, then lysed in a buffer consisting of 70 mM NaCl, 10 mM HEPES (pH 7.4), 50 mM glycerol phosphate, and 1% Triton X-100. Lysates were clarified by centrifugation at 13,000 × g for 10 minutes. Five micrograms of the resulting supernatants were incubated with 10 µg microtubule associated protein-2 (Map2) for 15 minutes at 30°C in a final volume of 25 µL containing 50 mM Tris (pH 7.4), 10 mM MgCl2, 2 mM EGTA and 30 µM [γ-^32P]ATP, Reactions were terminated by addition of Laemmli sample buffer.

For another test, the target named is MEK. Kind of test: Cascade assay for inhibitors of the MAP kinase pathway (In Vitro). The class given is biochemical. As to the method:
Incorporation of ^32P into myelin basic protein (MBP) was assayed in the presence of a glutathione S-transferase fusion protein containing p44MAP kinase (GST-MAPK) and a glutathione S-transferase fusion protein containing p45MEK (GST-MEK). The assay solution contained 20 mM HEPES, pH 7.4, 10 mM MgCl2, 1-mM MnCl2, 1 mM EGTA, 50 µM [γ-^32P]ATP, 10 µg GST-MEK, 0.5 µg GST-MAPK and 40 µg MBP in a final volume of 100 µL. […] Compounds were assessed at 10 µM for ability to inhibit incorporation of ^32P.
To ascertain whether compounds were inhibiting GST-MEK or GST MAPK, two additional protocols were employed. In the first protocol, compounds were added to tubes containing GST-MEK, followed by addition of GST-MAPK, MBP and [γ-^32P]ATP.

Regarding `Cc1cc(I)ccc1Nc1c(C(=O)O)cc(F)c(F)c1F` [Example 2, 3,4,5-Trifluoro-2-(4-iodo-2-methyl-phenylamino)-benzoic acid], the negative logarithm of the IC50 (pIC50) was 5.52 with MAP kinase and 7.85 on MEK. In the case of `Cc1cc(I)ccc1Nc1c(C(=O)O)ccc(F)c1F` [Example 3, 3,4-Difluoro-2-(4-iodo-2-methyl-phenylamino)-benzoic acid], the negative-log IC50 (pIC50) is 5.00 in the test with MAP kinase and 7.95 at MEK. With `Cc1cc(I)ccc1Nc1c(C(=O)O)cc(Br)c(F)c1F` [Example 4, 5-Bromo-3,4-difluoro-2-(4-iodo-2-methyl-phenylamino)-benzoic acid], the negative-log IC50 (pIC50) with MAP kinase is 6.00; against MEK, 8.30.

In turn, `Cc1cc(I)ccc1Nc1ccccc1C(=O)O` [Example 19, 2-(4-Iodo-2-methyl-phenylamino)-benzoic acid] registered an inhibition at 30 µM in the test on MAP kinase of 50%. Also, the pIC50 against MEK is 6.28.

`Cc1cc(I)ccc1Nc1c(F)cc(C(=O)O)c(F)c1F` [Example 22, 2,3 ,5 -Trifluoro-4-(4-iodo-2-methyl-phenylamino)-benzoic acid] registered an inhibition at 30 µM in the test with MAP kinase of 30%. For the same compound, the pIC50 on MEK is 5.80. In the test with MAP kinase, `Cc1cc(I)ccc1Nc1cccc(F)c1C(=O)O` [Example 26, 2-Fluoro-6-(4-iodo-2-methyl-phenylamino)-benzoic acid] displayed an inhibition at 30 µM of 50%. Further, on MEK, the negative-log IC50 (pIC50) was 5.58. For `Cc1cc(I)ccc1Nc1cc([N+](=O)[O-])ccc1C(=O)O` [Example 30, 2-(4-Iodo-2-methyl-phenylamino)-4-nitro-benzoic acid], the pIC50 in the test with MAP kinase was 5.00. The “In Vitro % Inhibition” value in the test on MEK (compounds assessed at 10 µM) is recorded as 105%.

As to `Cc1cc(I)ccc1Nc1cc(F)ccc1CO` [Example 49, 4-Fluoro-2-(4-iodo-2-methyl-phenylamino)-benzyl alcohol], the pIC50 was 5.52 in the test on MAP kinase and 6.38 at MEK.

Consider `Cc1cc(I)ccc1Nc1ccc(Cl)cc1C(=O)NCCN1CCCC1` [Example 96, 5-Chloro-2-(4-iodo-2-methyl-phenylamino)-N-(2-pyrrolidin-1-yl-ethyl)-benzamide], for which the pIC50 on MEK was 6.43. `Cc1cc(I)ccc1Nc1ccc(Br)cc1C(=O)N1CCC(O)C1` (centres unmarked) [Example 100, [5-Bromo-2-(4-iodo-2-methyl-phenylamino)-phenyl]-(3-hydroxy-pyrrolidin-1-yl)-]: the pIC50 against MEK is 5.70. This pIC50 is 0.73 log units lower than that of the compound before. Regarding `Cc1cc(I)ccc1Nc1ccc([N+](=O)[O-])cc1C(=O)NC1CCCCC1` [Example 184, N-Cyclohexyl-2-(4-iodo-2-methyl-phenylamino)-5-nitro-benzamide], the pIC50 against MEK was 6.56. Against the preceding compound, the pIC50 is 0.86 log units higher. As for `Cc1cc(I)ccc1Nc1ccc(Cl)cc1C(=O)NCCO` [Example 187, 5-Chloro-N-(2-hydroxy-ethyl)-2-(4-iodo-2-methyl-phenylamino)-benzamide], the pIC50 against MEK was 6.25. Consider `Cc1cc(I)ccc1Nc1ccc(Br)cc1C(=O)NCCO` [Example 188, 5-Bromo-N-(2-hydroxy-ethyl)-2-(4-iodo-2-methyl-phenylamino)-benzamide], for which the pIC50 against MEK is 6.11. This pIC50 and that of the compound before are within 0.2 log units of each other. As to `Cc1cc(I)ccc1Nc1ccc([N+](=O)[O-])cc1C(=O)N(C)c1ccccc1` [Example 189, 2-(4-Iodo-2-methyl-phenylamino)-N-methyl-5-nitro-N-phenyl-benzamide], the negative-log IC50 (pIC50) on MEK is 6.07. As to `Cc1cc(I)ccc1Nc1ccc(Cl)cc1C(=O)N(C)c1ccccc1` [Example 190, 5-Chloro-2-(4-iodo-2-methyl-phenylamino)-N-methyl-N-phenyl-benzamide], at MEK, the pIC50 is 6.04. Still for that read-out and setting: for `Cc1cc(I)ccc1Nc1ccc(I)cc1C(=O)NCCO` [Example 191, N-(2-Hydroxy-ethyl)-5-iodo-2-(4-iodo-2-methyl-phenylamino)-benzamide] the value was 5.87; for `Cc1cc(I)ccc1Nc1ccc(Cl)cc1C(=O)NC1CC1` [Example 192, 5-Chloro-N-cyclopropyl-2-(4-iodo-2-methyl-phenylamino)-benzamide], 5.75.

`C=CCNC(=O)c1cc(Cl)ccc1Nc1ccc(I)cc1C` [Example 193, N-Allyl-5-chloro-2-(4-iodo-2-methyl-phenylamino)-benzamide] showed a negative logarithm of the IC50 (pIC50) against MEK of 5.54. Consider `Cc1cc(I)ccc1Nc1ccc(F)cc1C(=O)N(C)c1ccccc1` [Example 194, 5-Fluoro-2-(4-iodo-2-methyl-phenylamino)-N-methyl-N-phenyl-benzamide], for which the pIC50 against MEK was 5.31. This pIC50 lies 0.23 log units lower than the previous one. The compound `Cc1cc(I)ccc1Nc1ccccc1-c1nnn[nH]1` [Example 208, (4-Iodo-2-methyl-phenyl)-[2-(1H-tetrazol-5-yl)-phenyl]amine] had a pIC50 against MEK of 5.92. Against the preceding compound, the pIC50 is 0.61 log units higher. At MEK, `Cc1cc(I)ccc1Nc1ccc([N+](=O)[O-])cc1-c1nnn[nH]1` [Example 209, [4-Nitro-2-(1H-tetrazol-5-yl)phenyl]-(4-iodo-2-methyl-phenyl)-amine] had a negative logarithm of the IC50 (pIC50) of 5.86. On the same count and under the same terms, for `Nc1c([N+](=O)[O-])cc(C(=O)O)c(Nc2ccc(I)cc2Cl)c1F` [Example 211, 4-Amino-2-(2-chloro-4-iodo-phenylamino)-3-fluoro-5-nitro-benzoic acid] the value was below 7.00.

`O=C(O)c1cc([N+](=O)[O-])c(Nc2ccc(I)cc2Cl)c(F)c1Nc1ccc(I)cc1Cl` [Example 212, 2,4-Bis-(2-chloro-4-iodo-phenylamino)-3-fluoro-5-nitro-benzoic acid] showed a pIC50 against MEK of 7.47. `Cc1cc(I)ccc1Nc1cc(F)c([N+](=O)[O-])cc1C(=O)O` [Example 213, 4-Fluoro-2-(4-iodo-2-methyl-phenylamino)-5-nitro-benzoic acid]: on MEK, the pIC50 was 7.21.

At MEK, `O=C(O)c1ccc(F)c(F)c1Nc1c(F)cc(I)cc1F` [Example 214, 2-(2,6-Difluoro-4-iodo-phenylamino)-3,4-difluoro-benzoic acid] had a negative-log IC50 (pIC50) of 6.52. Against the preceding compound, the pIC50 is 0.69 log units lower. At MEK, `O=C(O)c1ccc([N+](=O)[O-])cc1Nc1ccc(I)cc1Cl` [Example 215, 2-(2-Chloro-4-iodo-phenylamino)-4-nitro-benzoic acid] had a negative logarithm of the IC50 (pIC50) of 7.51. On the same count and under the same terms, next, `O=C(O)c1ccc(F)cc1Nc1ccc(I)cc1I` [Example 216, 2-(2,4-Diiodo-phenylamino)-4-fluoro-benzoic acid]: 6.00; `O=C(O)c1ccc(F)cc1Nc1ccc(I)cc1Br` [Example 217, 2-(2-Bromo-4-iodo-phenylamino)-4-fluoro-benzoic acid]: below 6.00. As to `O=C(O)c1ccc(F)cc1Nc1ccc(I)cc1F` [Example 218, 4-Fluoro-2-(2-fluoro-4-iodo-phenylamino)-benzoic acid], at MEK, the negative-log IC50 (pIC50) is 7.29. Still for that read-out and setting: next, `O=C(O)c1ccc(F)cc1Nc1ccc(I)cc1Cl` [Example 219, 2-(2-Chloro-4-iodo-phenylamino)-4-fluoro-benzoic acid]: 6.97. Still for that read-out and setting: next, `COC(=O)c1c(F)c(F)c(N2CCN(C)CC2)c(F)c1Nc1ccc(I)cc1C` [Example 221, 2,3,5-Trifluoro-6-(4-iodo-2-methyl-phenylamino)-4-(4-methyl-piperazin-1-yl)-benzoic acid methyl ester dihydrofluoride salt]: 8.70. Compound `Cc1cc(I)ccc1Nc1c(C(=O)NN2CCN(C)CC2)cc(Br)c(F)c1F` [Example 222, 5-Bromo-3,4-difluoro-2-(4-iodo-2-methyl-phenylamino)-N-(4-methyl-piperazin-1-yl)-benazmide] showed a negative logarithm of the IC50 (pIC50) against MEK of 7.07. In turn, `Cc1cc(I)ccc1Nc1c(C(=O)NN(C)C)cc(Br)c(F)c1F` [Example 223, 5-Bromo-3,4-difluoro-2-(4-iodo-2-methyl-phenylamino)-benzoic acid N',N'-dimethyl-hydrazide] gave a pIC50 against MEK of 7.37. This pIC50 is 0.30 log units higher than that of the compound before. For `Cc1cc(I)ccc1Nc1cc(F)ccc1C(=O)NN` [Example 224, 4-Fluoro-2-(4-iodo-2-methyl-phenylamino)-benzoic acid hydrazide], the pIC50 against MEK was 7.55. On the same count and under the same terms, next, “N-(2,3-Dihydroxy-propyl)-3,4-difluoro-2-(4-iodo-2-methyl-phenylamino)-benzamide [Example 54]”: 6.80; “N-(2,3-Dihydroxy-propyl)-4-fluoro-2-(4-iodo-2-methyl-phenylamino)-benzamide [Example 57]”: 6.40.

Source of the values: patent EP0993437B1, “2-(4-BROMO OR 4-IODO PHENYLAMINO) BENZOIC ACID DERIVATIVES AND THEIR USE AS MEK INHIBITORS” (Warner-Lambert Company LLC, priority 1997, dated 1999).
